{"source": "paper PMC5209733", "about": "“U24 from Roseolovirus interacts strongly with Nedd4 WW Domains” (Scientific Reports, 2017)", "format_in_all_cases": "binding", "key": {"hNedd4-WW3*": {"biological_target": "T1, hNedd4-WW3* (Homo sapiens, UniProt P46934)", "T1 construct": "The DNA fragment of the third WW domain of both proteins was amplified; GST (N, cleaved yes); made in house; host or cells: E. coli BL21(DE3)", "T1 sequence (P46934 840-873 limits assumed)": "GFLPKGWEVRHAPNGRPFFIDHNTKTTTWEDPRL", "assay": "Isothermal titration calorimetry, hNedd4-WW3*", "details": "ITC, 25 °C, 10 mM sodium phosphate, pH 7.4; mean of three separate runs ± one SD", "method": "(§1) In order to compare the affinities between the U24 proteins and WW domains, the equilibrium dissociation constant (KD) for the interaction between each U24:Nedd4-WW domain pair tested above was determined using ITC. […] ITC experiments using these peptides as titrants were carried out on Nedd4-WW domains in 10 mM sodium phosphate, pH 7.4, at 25 °C. Control experiments in which the phosphate buffer was titrated into the protein solutions were also conducted to ensure the proteins were stable during the titration with peptide.\n(§2) Two cDNA clones containing human E3 ubiquitin-protein ligase Nedd4 (KIAA0093) and Nedd4-like protein (KIAA0439) were ordered from Kazusa DNA research institute (Chiba, Japan). The DNA fragment of the third WW domain of both proteins was amplified and inserted into BamHI and XhoI sites of pGEX-4T2 vector (GE Healthcare). […]\n(§3) After overnight dialysis, the cleaved Nedd4 WW domains in phosphate buffer, with different salt concentrations, were ready for use in ITC experiments. […] The concentration of the sample was determined by the absorbance at 280 nm in 6 M Guanidine HCl on a UV-Vis spectrophotometer, and calculated using the theoretical extinction coefficient obtained from the ProtParam tool[51]. […] The peptide amounts were determined gravimetrically and calibrated according to the absorbance at 280 nm in 6 M Guanidine HCl. […]"}, "rNedd4-WW3/4": {"biological_target": "T2, rNedd4-WW3/4 (Rattus norvegicus, UniProt Q62940)", "T2 construct": "GST fusion proteins of the second and third WW domains (WW2 and WW3/4) of rNedd4; GST (N, cleaved yes); made in house; host or cells: E. coli BL21(DE3)", "T2 sequence (Q62940 459-492 limits assumed)": "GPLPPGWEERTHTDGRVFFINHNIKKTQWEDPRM", "assay": "Isothermal titration calorimetry, rNedd4-WW3/4", "details": "ITC, 25 °C, 10 mM sodium phosphate", "method": "as §1\nImportantly, this is the tightest affinity characterized to date between a U24 peptide ligand and WW domains.\nIn order to find out whether electrostatic interactions play a role in the binding of the three U24 peptides tested here to the Nedd4-WW domains, a set of ITC experiments were performed as a function of increasing salt concentration, 0 mM, 100 mM and 500 mM, in 10 mM sodium phosphate, pH 7.4, at 25 °C, for rNedd4-WW3/4 and hNedd4L-WW3*. Affinities and molar binding enthalpies (ΔH) for each U24:WW-domain pair as a function of salt concentration are plotted in Supplementary Fig. 2 and Fig. 3c and d, respectively.\n(§4) Two cDNA clones containing human E3 ubiquitin-protein ligase Nedd4 (KIAA0093) and Nedd4-like protein (KIAA0439) were ordered from Kazusa DNA research institute (Chiba, Japan). The DNA fragment of the third WW domain of both proteins was amplified and inserted into BamHI and XhoI sites of pGEX-4T2 vector (GE Healthcare). The plasmids containing GST fusion proteins of the second and third WW domains (WW2 and WW3/4) of rNedd4 were kind gifts from Dr. Julie D. Forman-Kay (Hospital for Sick Children, Toronto). All plasmids were transformed into E. coli BL21(DE3) for expression at 25 °C for 16 hours using a final concentration of 400 μM IPTG. ^15N labelled protein was expressed in M9 media supplemented with ^15N labelled NH4Cl. The cells were harvested by centrifugation and stored in the −80 °C freezer until further use. The cell paste from approximately 600 mL culture was thawed on ice and resuspended in 10 mL PBS supplemented with 1% Triton X-100 (PBS/Triton buffer). Lysozyme, protease inhibitor and DNAse were added in the mixture. The mixture was incubated on ice for half an hour, then was lysed in an ice bath by sonication. After being centrifuged at 9,000 rpm for 1 hour, the supernatant was filtered using a 0.45 μm filter, and then applied to 2 mL of PBS washed Glutathione Sepharose 4B resin (GE Healthcare, GST 4B resin). The resin slurry with cell lysate was incubated for 2 hours at room temperature, and then washed with PBS/Triton buffer six times. The resin was collected by centrifugation at 600 × g for 5 minutes.\nIn order to obtain WW domains without the GST tag, the proteins were extracted and immobilized on GST 4B resin as described above. The resin was washed three times with PBS buffer, after the washing with PBS/Triton buffer. 3 mL PBS buffer and 150 units of thrombin (GE Healthcare) were added into the pelleted resin and the slurry was incubated at room temperature for 16 hours. The supernatant containing cleaved WW domains were collected on the second day by centrifugation. The residual thrombin in this fraction was removed using p-Aminobenzamidine-agarose (Sigma-Aldrich) and fresh GST 4B resin was used to remove the GST contaminants. The WW domain containing fraction was dialyzed at 4 °C against 2 L phosphate buffer (10 mM sodium phosphate, pH 7.4) using 2,000 MWCO dialysis membrane overnight for ITC or NMR experiments, or phosphate buffer with various salt concentrations (phosphate buffer with 100 mM or 500 mM NaCl) for ITC experiments.\nAfter overnight dialysis, the cleaved Nedd4 WW domains in phosphate buffer, with different salt concentrations, were ready for use in ITC experiments. The dialysis buffer was kept as a sample-free buffer to measure the heats of dilution. […]"}, "rNedd4-WW2": {"biological_target": "T3, rNedd4-WW2 (Rattus norvegicus, UniProt Q62940)", "T3 construct": "GST fusion proteins of the second and third WW domains (WW2 and WW3/4) of rNedd4; GST (N, cleaved yes); made in house; host or cells: E. coli BL21(DE3)", "T3 sequence (Q62940 402-435 limits assumed)": "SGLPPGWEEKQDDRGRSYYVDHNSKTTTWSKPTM", "assay": "Isothermal titration calorimetry, rNedd4-WW2", "details": "ITC, 25 °C, 10 mM sodium phosphate, pH 7.4; mean of three separate runs ± one SD", "method": "as §1, §2, §3"}, "hNedd4L-WW3*": {"biological_target": "T4, hNedd4L-WW3* (Homo sapiens, UniProt Q96PU5)", "T4 construct": "The DNA fragment of the third WW domain of both proteins was amplified; GST (N, cleaved yes); made in house; host or cells: E. coli BL21(DE3)", "T4 sequence (Q96PU5 497-530 limits assumed)": "as the sequence (P46934 840-873 limits assumed) above, with G1S, K5P, V9M, H11I counted along it", "assay": "Isothermal titration calorimetry, hNedd4L-WW3*", "details": "ITC, 25 °C, 10 mM sodium phosphate", "method": "as §1\nIn order to find out whether electrostatic interactions play a role in the binding of the three U24 peptides tested here to the Nedd4-WW domains, a set of ITC experiments were performed as a function of increasing salt concentration, 0 mM, 100 mM and 500 mM, in 10 mM sodium phosphate, pH 7.4, at 25 °C, for rNedd4-WW3/4 and hNedd4L-WW3*.\nas §4\nIn order to obtain WW domains without the GST tag, the proteins were extracted and immobilized on GST 4B resin as described above. The resin was washed three times with PBS buffer, after the washing with PBS/Triton buffer. […]\nAfter overnight dialysis, the cleaved Nedd4 WW domains in phosphate buffer, with different salt concentrations, were ready for use in ITC experiments. […]"}, "[1]": {"details": "pH 7.4, extra 100 mM NaCl, three runs"}, "[2]": {"details": "pH 7.4, extra 500 mM NaCl, three runs"}, "[3]": {"details": "pH 7.4, mean of three separate runs ± one SD"}}, "note": "No end group written: not given here.", "data": [{"molecule": "CSCC[C@H](N)C(=O)N[C@@H](CC(=O)O)C(=O)N1CCC[C@H]1C(=O)N1CCC[C@H]1C(=O)N[C@@H](CCCNC(=N)N)C(=O)N[C@H](C(=O)N1CCC[C@H]1C(=O)N1CCC[C@H]1C(=O)N1CCC[C@H]1C(=O)N[C@@H](CO)C(=O)N[C@@H](Cc1ccc(O)cc1)C(=O)N[C@@H](CO)C(=O)N[C@@H](CCC(=O)O)C(=O)N[C@H](C(=O)N[C@@H](CC(C)C)C(=O)O)C(C)C)[C@@H](C)O", "note": "[U24-6A]", "values": [{"measurement": "Kd", "setting": "hNedd4-WW3*", "value": "9.7 ± 0.2", "unit": "µM"}, {"measurement": "Kd", "setting": "rNedd4-WW3/4; [1]", "value": 35.7, "unit": "µM"}, {"measurement": "Kd", "setting": "rNedd4-WW3/4; [2]", "value": 30.6, "unit": "µM"}, {"measurement": "Kd", "setting": "rNedd4-WW2", "value": "155 ± 12", "unit": "µM"}, {"measurement": "Kd", "setting": "hNedd4L-WW3*; [1]", "value": 6.9, "unit": "µM"}, {"measurement": "Kd", "setting": "hNedd4L-WW3*; [2]", "value": 6.1, "unit": "µM"}, {"measurement": "Kd", "setting": "hNedd4L-WW3*; [3]", "value": "6.3 ± 0.3", "unit": "µM"}]}, {"molecule": "CSCC[C@H](N)C(=O)N[C@@H](CC(=O)O)C(=O)N1CCC[C@H]1C(=O)N1CCC[C@H]1C(=O)N[C@@H](CCCNC(=N)N)C(=O)N[C@H](C(=O)N1CCC[C@H]1C(=O)N1CCC[C@H]1C(=O)N1CCC[C@H]1C(=O)N[C@@H](CO)C(=O)N[C@@H](Cc1ccc(O)cc1)C(=O)N[C@@H](CO)C(=O)N[C@@H](CCC(=O)O)C(=O)N[C@H](C(=O)N[C@@H](CC(C)C)C(=O)O)C(C)C)[C@@H](C)OP(=O)(O)O", "note": "[pU24-6A]", "values": [{"measurement": "Kd", "setting": "rNedd4-WW3/4; [1]", "value": 12, "unit": "µM"}, {"measurement": "Kd", "setting": "rNedd4-WW3/4; [2]", "value": 9.5, "unit": "µM"}]}, {"molecule": "IKHEPENPPPYEEAM [Nogo-A, reference compound]", "values": [{"measurement": "Kd", "setting": "hNedd4L-WW3*; [3]", "value": "4 ± 0.2", "unit": "µM"}]}, {"molecule": "MTHETPPPSYNDVML [U24-7]", "values": [{"measurement": "Kd", "setting": "hNedd4-WW3*", "value": "1.98 ± 0.04", "unit": "µM"}, {"measurement": "Kd", "setting": "rNedd4-WW3/4; [1]", "value": 14.6, "unit": "µM"}, {"measurement": "Kd", "setting": "rNedd4-WW3/4; [2]", "value": 13.2, "unit": "µM"}, {"measurement": "Kd", "setting": "rNedd4-WW3/4; [3]", "value": "21 ± 0.5", "unit": "µM"}, {"measurement": "Kd", "setting": "rNedd4-WW2", "value": "87 ± 5", "unit": "µM"}]}]}
